Earlier results on two compounds are cited in patent publication US20080242855A1, “Process for Producing Flavone C Glycoside Derivatives” (priority 2004, published 2008).

One data set relates to peritoneal mast cells. The settings on record: reported in Japanese Patent Laid-Open No. 2004-035474.
The test system of data set [1] is auricular edema induced by 2,4-dinitrofluorobenzen (DNFB). The conditions noted are these: reported in Japanese Patent Laid-Open No. 2004-035474.

The structures appear in SMILES notation.

On to `O=c1cc(-c2ccc(O)cc2)oc2cc3c(c(O)c12)[C@@H]1O[C@H](CO)[C@@H](O)[C@H](O)[C@@H]1O3` [formula (1)], for which the “inhibitory effect on histamine release from peritoneal mast cells” value in the data set with peritoneal mast cells is recorded as “inhibitory effect”. Besides, the “inhibitory effect on the formation of auricular edema induced by 2,4-dinitrofluorobenzen (DNFB)” value in data set [1] is on record as “inhibitory effect”.
With `O=c1cc(-c2ccc(O)cc2)oc2c3c(cc(O)c12)O[C@H]1[C@@H](O)[C@H](O)[C@@H](CO)O[C@@H]31` [formula (4)], the “inhibitory effect on histamine release from peritoneal mast cells” value in the data set with peritoneal mast cells was “inhibitory effect”. Besides, the “inhibitory effect on the formation of auricular edema induced by 2,4-dinitrofluorobenzen (DNFB)” value in data set [1] is “inhibitory effect”.
